Bounds are passed on as bounds.

The record followed here is a melting point compilation (Tetko et al.; mined from patent text by program, amines drawn as free bases though some values may be those of a salt).

`Cc1csc2nc(=O)n(C)c(-c3ccccc3F)c12` had a melting point of 176 to 178 °C.
`O=C1CCCN1CC1CCN(c2ccnc(C(F)(F)F)n2)CC1` displayed a melting point of 118 to 120 °C.
Next, `NC(=O)CCc1ccc(F)cc1F`: 107 to 108 °C.
Next, `Cc1ccc(-c2cccc(/C=C/C(=O)Nc3ccc(CN4CCCCC4)cc3)c2)cc1`: 154 to 156 °C; `Cn1c(CNC[C@H]2CCCO2)cc2cc(NC(=O)c3ccc(OCC4CC4)cc3)ccc21`: 138 to 139 °C.
Turning to `CCOC(=O)c1sc(N)nc1CC`, the melting point was 177 to 179 °C.
As to `CC(C)(C)S(=O)(=O)c1ccccc1NC(=O)N[C@@H](Cc1ccc(NC(=O)c2c(Cl)cncc2Cl)cc1)C(=O)O`, the melting point stood at 228 °C.
On to `CCCNCCC1Cc2ccc(-c3ccc(=O)[nH]n3)cc2C1` (stereo unspecified), for which the melting point was 150 to 151 °C.
Compound `O=C(CC(=O)C(F)F)c1ccc(Cl)cc1` gave a melting point of 65 to 66.5 °C.
Then `COc1cc(Nc2c(C#N)cnc3cc(-c4cnc(C=O)n4C)ccc23)c(Cl)cc1Cl`, with 186 to 189 °C; and `CCOC(OCC)c1nc(N)nc(N)c1-c1cccc(Cl)c1Cl`, with 214 to 217 °C.
Compound `CCOC=Nc1c(C#N)cnn1-c1ccc(Cl)c(Cl)c1Cl` came in with a melting point of 131 to 132 °C.
`CC(C)Oc1cc(-c2cn(C)c(C(F)(F)F)cc2=O)c(F)cc1Cl` gave a melting point of 150 to 151 °C.
Next, `C#Cc1ccc(-c2c(F)cccc2F)cc1`: 81 to 83 °C.
Next, `COC(=O)CN1CSC=C(N2C(=O)c3ccccc3C2=O)C1=O`: 181 to 183 °C; `CCOC(=O)c1cc(NCc2ccccc2)c(Nc2ccc3ccccc3c2)c(S(N)(=O)=O)c1`: 199 to 201 °C; `CN(C)CCOc1ccc(Nc2nccc(-c3cccnc3)n2)cc1`: 108 to 110 °C.
Regarding `Cc1ccc(-c2noc3c(Cl)c(OCC(=O)O)ccc23)o1`, the melting point was 217 to 219 °C.
Then `CCCCCC1(C(=O)Nc2ccc(C(=O)O)cn2)CC2=C(C1)C(C)(C)CCC2(C)C`, with 172 to 174 °C; and `CSc1cnc(NC2=NCC3(CN4CCC3CC4)O2)cn1` (stereo unspecified), with 155 to 160 °C; and `CC(=O)c1cccc(-c2cncc(OC3SCC(O)C(O)C3O)c2)c1` (stereo unspecified), with 159 to 163 °C.
Next, `CCCc1cc2ccccn2c1C(C)=O`: 71 to 72 °C.
The compound `CCOC(=O)c1csc2c1N(O)CCC2` had a melting point of 252 to 253 °C.
In turn, `CC(=O)OCC1COc2c(C(=O)O)cc(Cl)c(Cl)c2O1` (stereo unspecified) returned a melting point of 144 to 145 °C.
In turn, `CC(C)(C)OC(=O)NC(COc1noc2ccc(Cl)cc12)Cc1cc(O)no1` (stereo unspecified) registered a melting point of 159 to 161 °C.
Then `CCCC(Cl)(Cl)C(NC(=O)c1ccc(Cl)cc1)NC(=NC#N)Nc1cccnc1` (stereo unspecified), with 192 to 193 °C; and `O=C1OC(c2ccccc2)=NC1Cc1ccccc1` (racemic), with 70 to 72 °C.
As for `COc1cccc(C(O)c2nc3c(cc2C)CCCCC3)c1` (stereo unspecified), the melting point fell in the range of 104 to 106 °C.
Then `Cc1nccn1-c1nc(-c2ccc(Cl)c(Cl)c2)c(CCCO)o1`, with 140 to 141 °C; and `N#Cc1ccc([C@@H]2CN(Cc3ccccc3)C[C@@]23NC(=O)N(c2cc(Cl)cc(Cl)c2)C3=O)cc1` (relative stereo), with 200 °C; and `CCC12CCC3c4ccc(OC)cc4C(C)CC3C1CCC2O` (stereo unspecified), with 150 to 160 °C.
Regarding `COc1cc(C)c(C(=O)c2c(C(F)(F)F)cc(Cl)nc2Cl)c(OC)c1OC`, the melting point lay within 81 to 83 °C.
Next, `N#Cc1cc(N)c(Cl)cc1C#N`: 206 to 209 °C; `N#Cc1ccc2c(c1)Cc1cc(C#N)ccc1-2`: 282 to 284 °C.
Then `CCc1[nH]n(C2CCCC2)c2nc(S(C)(=O)=O)nc(=O)c1-2`, with greater than 300 °C; and `N=C(Nc1ccc(Cl)cc1)NC1CCCCC1`, with 187 to 190 °C.
Then `O=C(NO)NCCCCC1CCSS1` (stereo unspecified), with 100 to 101 °C; and `O=C(Nc1ccc2nc(CN3CCCC3)ccc2c1)c1ccc(-c2ccccc2)cc1`, with 181 to 183 °C.
On to `CN1C(=O)C(C2=COc3ccccc3O2)=C(c2cn(C(=O)OC(C)(C)C)c3ccc(OCc4ccccc4)cc23)C1=O`, for which the melting point is 93 °C.
Then `CNc1cc(C)nc2c(S(=O)(=O)c3ccc(C)cc3)c(SC)nn12`, with greater than 230 °C; and `CCOC(=O)c1conc1-c1ccc(F)c(Cl)c1`, with 108 to 109 °C; and `CCOc1nn(CCO)cc1C(=O)NCc1ccc(Cl)cc1Cl`, with 152 to 153 °C.
Compound `CCOC(=O)C1=C(C(C)C)Nc2n[nH]cc2C1c1ccccc1[N+](=O)[O-]` (stereo unspecified) came in with a melting point of 205 to 206 °C.
Then `C(=Cc1cccc2ccccc12)c1ccc(-c2cc3ccccc3o2)cc1`, with 154 to 155 °C.
Compound `O=C1c2cccc(-c3ccc(C(F)(F)F)cc3)c2CC1Br` (stereo unspecified) had a melting point of 94 to 97 °C.
Next, `CCc1cc2c(s1)N(C)C(=O)C(OC(=O)Nc1cccc(C)c1)N=C2c1ccccc1Cl` (stereo unspecified): 181 to 182 °C; `CN(C)CCNC1=CC(=O)c2nc(-c3ccccc3Br)oc2C1=O`: 147 to 148 °C; `CC(=O)C(=NNc1ccccc1)C(=O)NCc1ccccc1`: 101 to 103 °C.
Then `Cc1ccc(-c2ccccc2)c(C)c1CO`, with 77 to 78 °C; and `N#CCC(=O)Nc1ccc(S(=O)C(F)(F)F)cc1` (stereo unspecified), with 164 to 165 °C.
In the case of `OC1(c2cc3ccccc3s2)CCN(CCC2COc3ccccc3O2)CC1` (stereo unspecified), the melting point was in the range of 175 to 178 °C.
Next, `COc1cn(-c2cccc(-c3cnn(C)c3)c2F)nc(-c2ccnn2-c2ccccc2)c1=O`: 218 to 221 °C; `C=CC(O)c1cc(O)ccc1[N+](=O)[O-]` (stereo unspecified): 126 to 130 °C.
With `COc1ccc2c(C)c(C(=O)C34CC5CC(CC(C5)C3)C4)oc2c1`, the melting point was in the range of 173 to 175 °C.
The compound `Clc1ccc(C2CCN3c4ccccc4C4=NCCN4C23)cc1` (stereo unspecified) had a melting point of 158 to 160 °C.
Next, `CCC1(CC)C(=O)Nc2ccccc21`: 156 to 159 °C.
Next, `COc1cc(OC)nc(NC(=O)NS(=O)(=O)c2ncccc2OCCCl)n1`: 156 to 158 °C.
In turn, `CN1C(C(=O)Nc2ccccc2)=C(O)c2ccc3ccccc3c2S1(=O)=O` gave a melting point of 273 to 274 °C.
`CN(C)c1ccc2nc(N)c(C#N)c(NCc3cccs3)c2c1` showed a melting point of 211 °C.
Regarding `O=C(c1cccnc1)c1ccc([N+](=O)[O-])c(CO)c1`, the melting point worked out at 184 °C.
Then `CN(C(=O)CNC(=O)OC(C)(C)C)c1ccc(OCC(=O)O)cc1`, with 146 to 155 °C; and `O=C(NCCSCc1cccc(Br)c1)c1c(Br)cccc1Br`, with 70 to 72 °C; and `COC(=O)C=Cc1ccc(OCc2nc(-c3ccccc3)oc2C)c(C(F)(F)F)c1`, with 148 to 149 °C.
In turn, `COc1cc(OC)cc(N2CCN(C(=O)Nc3cc4c(nc3OC)CCC4)CC2)c1` registered a melting point of 143 to 144 °C.
On to `CC(=O)Nc1ccc([N+](=O)[O-])cc1-c1cc([N+](=O)[O-])ccc1NC(C)=O`, for which the melting point was 263 to 265 °C.
Next, `COc1cccc(OC)c1-c1nc2nccnc2[nH]1`: 248 to 249 °C.

For orientation: melting point means the temperature of the solid-liquid transition.
